{"source": "paper PMC6161602", "about": "“Synthesis and characterisation of (Z)-styrylbenzene derivatives as potential selective anticancer agents” (Journal of Enzyme Inhibition and Medicinal Chemistry, 2018)", "format_in_all_cases": "cell-based, human", "key": {"A549 lung cancer cell": {"system": "A549 lung cancer cell", "assay": "MTT cell growth inhibition assay, A549", "text": "(§1) All human cell lines were used in this study. MGC-803 late-stage differentiation gastric cancer cell, A549 lung cancer cell, HepG2 hepatoma cell, AGS gastric cancer cell, BEL-7402 liver cancer cell, HCT-116 colorectal cancer cell, HeLa cervical cancer cell, SGC-7901 early differentiation gastric cancer cell, L-02 normal liver cell, MCF-7 breast cancer cell, and MCF-10A normal breast cell were initially purchased from American Type Culture Collection (ATCC, Manassas, VA, USA). RPMI-1640 media, Dulbecco’s modified Eagle’s medium (DMEM), and foetal bovine serum (FBS) were provided from Gibco Company (Grand Island, NY, USA). The cells were maintained in DMEM or RPMI-1640, supplemented with 10% FBS, 100 IU/mL penicillin and […] (Grand Island, NY, USA), and at 37 °C in a humidified atmosphere containing 5% CO2.\n(§2) Cells were plated in 96-well plates at a density of 30–40% to ensure exponential growth throughout the experimental period, and then allowed to adhere for 1 day[21]. Next, the cells were treated with four serial concentrations (1, 10, 50, and 100 µM) of each compound. Taxol, CA-4, and CA-4P (phosphorylated form of CA-4) were used as positive controls. After 48 h incubation, MTT solution was added to each well at a final concentration of 2 mg/mL, and incubated for an additional 4 h. Next, the MTT solution was removed and 150 µL of dimethyl sulphoxide (DMSO)/well was added (Sigma-Aldrich, St Louis, MO, USA). The plates were shaken vigorously at RT to ensure complete solubilisation, and absorption at 492 nm was determined.\n(§3) According to standard protocol, preliminary in vitro anti-proliferative activities of the synthesised compounds were evaluated by MTT assay, using nine human cancer cell lines (MGC-803, A549, HepG2, AGS, BEL-7402, HCT116, HeLa, SGC-7901, and MCF-7) and two normal human cell lines (L-02 and MCF-10A), and compared with those of CA-4, CA-4P, and taxol."}, "AGS cells": {"system": "AGS cells", "assay": "MTT cell growth inhibition assay, AGS", "text": "as §1, §2, §3"}, "BEL-7402 cells": {"system": "BEL-7402 cells", "assay": "Transwell cell migration assay", "settings": "BEL-7402, transwell, 24 h, 0.1 or 0.5 µM", "method": "Quantitative cell migration was performed using 24-well Boyden chambers (Corning, NY, USA) as described. Briefly, transwells with 8-µm pore size filters were inserted into 24-well plates. RPMI-1640 (500 µL) containing 10% FBS was added to the lower chamber, and 100 µL of a serum-free cell suspension (1 × 10^5 cells) was placed in the upper chamber. The BEL-7402 cells were pre-treated with indicated concentrations of 6h, taxol, or DMSO. The plates were incubated at 37 °C with 5% CO2 for 24 h, and the cells on the upside were removed using cotton swaps. After several rinses, the cells adhering in the lower layer of insert were fixed with methanol and stained with 1× crystal violet solution. The number of migrated cells in nine randomly selected fields from triplicate chambers was counted in each experiment under a phase-contrast microscope at 200× magnification."}, "cyclin D1": {"system": "cyclin D1", "assay": "Western blotting, cyclin D1", "settings": "BEL-7402, 12 h, immunoblot, dose-dependent", "method": "BEL-7402 cells were harvested in logarithmic growth phase and the adherent and floating cells were collected after 12 h of drug treatment. The collected cells were resuspended in cold RIPA buffer (100 mM NaCl, 100 mM Tris (pH7.4), 10% Triton X-100, 1 mM PMSF, pH7.5) with 0.1 µM leupetin protease inhibitor as well as 1 µg/mL pepstatin and cracked on ice for 30 min. Then according to the reference to did immunoblotting assay."}}}
{"compound": "COc1cc(/C(C#N)=C/c2ccc(C)cc2)cc(OC)c1OC", "note": "[Compound 6h, (Z)-3-(p-Tolyl)-2-(3,4,5-trimethoxyphenyl)acrylonitrile]", "values": [{"measurement": "IC50", "setting": "A549 lung cancer cell; Homo sapiens, MTT, 48 h incubation, A549", "result": "530 ± 23", "unit": "nM"}, {"measurement": "SI IC50 (L-02/A549)", "setting": "A549 lung cancer cell; selectivity index, IC50 (L-02)/IC50 (A549)", "result": ">188.6"}, {"measurement": "IC50", "setting": "AGS cells; Homo sapiens, MTT, 48 h incubation, AGS", "result": "510 ± 450", "unit": "nM"}, {"measurement": "SI IC50 (L-02/AGS)", "setting": "AGS cells; selectivity index, IC50 (L-02)/IC50 (AGS)", "result": ">196.0"}, {"measurement": "migration ratio compared with the control group", "setting": "BEL-7402 cells", "result": "markedly decreased"}, {"measurement": "expression of cyclin D1 compared with the vehicle group", "setting": "cyclin D1", "result": "lower expression"}]}
